In patent publication US12215093B2, “Bicyclic carboxamides and methods of use thereof” (Tempest Therapeutics, Inc., priority 2018, dated 2025):

Key:
EP4 = molecular target: T1, EP4 (Homo sapiens, UniProt P35408); assay: Functional calcium flux assay, EP4; type: cell-based; conditions: stably transfected HEK293 cells; PGE2 10 nM; read-out: EP4 Ca2+-flux assay IC50
T1 construct: host or cells: stably transfected HEK293 cells co-expressing a promiscuous G protein and a clytin variant

EP2 = EP2 (Homo sapiens, UniProt P43116); assay: cell-based;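 further: functional calcium flux assay in stably transfected HEK293 cells expressing EP2 coupled via a promiscuous G protein, clytin luminescence read as area under the curve, 30 min compound preincubation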
EP2, sequence (P43116 whole entry): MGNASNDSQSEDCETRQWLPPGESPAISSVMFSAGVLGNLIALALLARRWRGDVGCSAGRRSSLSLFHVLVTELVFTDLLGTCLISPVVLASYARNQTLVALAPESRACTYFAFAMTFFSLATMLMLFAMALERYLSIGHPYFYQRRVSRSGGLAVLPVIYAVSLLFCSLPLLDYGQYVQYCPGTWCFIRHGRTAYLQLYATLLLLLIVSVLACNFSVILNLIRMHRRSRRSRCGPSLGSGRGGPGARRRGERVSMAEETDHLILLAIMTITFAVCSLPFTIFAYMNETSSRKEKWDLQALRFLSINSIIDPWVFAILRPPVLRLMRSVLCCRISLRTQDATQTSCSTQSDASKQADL

T1 sequence (P35408 whole entry): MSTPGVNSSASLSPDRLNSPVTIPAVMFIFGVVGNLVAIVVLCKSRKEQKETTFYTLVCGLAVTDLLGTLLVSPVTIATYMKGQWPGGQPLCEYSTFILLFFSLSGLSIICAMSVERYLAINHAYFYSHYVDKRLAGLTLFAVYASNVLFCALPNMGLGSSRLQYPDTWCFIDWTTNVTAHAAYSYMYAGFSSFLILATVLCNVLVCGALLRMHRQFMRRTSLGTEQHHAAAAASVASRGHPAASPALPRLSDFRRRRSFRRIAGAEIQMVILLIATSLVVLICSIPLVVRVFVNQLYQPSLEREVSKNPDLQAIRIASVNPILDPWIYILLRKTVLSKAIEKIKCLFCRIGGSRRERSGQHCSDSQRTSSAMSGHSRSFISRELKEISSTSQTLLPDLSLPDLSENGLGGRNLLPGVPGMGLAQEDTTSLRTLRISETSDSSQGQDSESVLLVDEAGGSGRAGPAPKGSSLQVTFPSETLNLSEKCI

Row | IC50 (EP4) [µM] | IC50 (EP2) [µM] | Structure (SMILES)
1 | < 0.001 | < 0.025 | COc1ccc(-c2ccc(Cn3ccc4c(F)ccc(C(=O)NC5CC6(C5)CC(C(=O)O)C6)c43)cc2)cc1 (racemic) [Example 12, (racemic)-6-(4-fluoro-1-((4′-methoxy-[1,1′-biphenyl]-4-yl)methyl)-1H-indole-7-carboxamido)spiro[3.3]heptane-2-carboxylic acid]
2 | < 0.001 | 0.039 | N#Cc1ccc(-c2ccc(Cn3ccc4c(F)ccc(C(=O)NC5CC6(C5)CC(C(=O)O)C6)c43)cc2)cc1 (racemic) [Example 13, (racemic)-6-(1-((4′-cyano-[1,1′-biphenyl]-4-yl)methyl)-4-fluoro-1H-indole-7-carboxamido)spiro[3.3]heptane-2-carboxylic acid]
3 | < 0.001 | < 0.025 | COc1cccc(-c2ccc(Cn3ccc4c(F)ccc(C(=O)NC5CC6(C5)CC(C(=O)O)C6)c43)cc2)c1 (racemic) [Example 14, (racemic)-6-(4-fluoro-1-((3′-methoxy-[1,1′-biphenyl]-4-yl)methyl)-1H-indole-7-carboxamido)spiro[3.3]heptane-2-carboxylic acid]
4 | < 0.001 | < 0.025 | N#Cc1cccc(-c2ccc(Cn3ccc4c(F)ccc(C(=O)NC5CC6(C5)CC(C(=O)O)C6)c43)cc2)c1 (racemic) [Example 15, (racemic)-6-(1-((3′-cyano-[1,1′-biphenyl]-4-yl)methyl)-4-fluoro-1H-indole-7-carboxamido)spiro[3.3]heptane-2-carboxylic acid]
5 | < 0.001 | < 0.025 | COc1ccc(-c2ccc(Cn3ccc4c(F)ccc(C(=O)NC5CC6(C5)CC(C(=O)O)C6)c43)cc2)cc1F (racemic) [Example 16, (racemic)-6-(4-fluoro-1-((3′-fluoro-4′-methoxy-[1,1′-biphenyl]-4-yl)methyl)-1H-indole-7-carboxamido)spiro[3.3]heptane-2-carboxylic acid]
6 | 0.007 | < 0.025 | COc1ncc(-c2ccc(Cn3ccc4c(F)ccc(C(=O)NC5CC6(C5)CC(C(=O)O)C6)c43)cc2)cc1Cl (racemic) [Example 17, (racemic)-6-(1-(4-(5-Chloro-6-methoxypyridin-3-yl)benzyl)-4-fluoro-1H-indole-7-carboxamido)spiro[3.3]heptane-2-carboxylic acid]
7 | < 0.001 | 0.034 | COc1ccccc1-c1ccc(Cn2ccc3c(F)ccc(C(=O)NC4CC5(C4)CC(C(=O)O)C5)c32)cc1 (racemic) [Example 18, (racemic)-6-(4-fluoro-1-((2′-methoxy-[1,1′-biphenyl]-4-yl)methyl)-1H-indole-7-carboxamido)spiro[3.3]heptane-2-carboxylic acid]
8 | < 0.001 | < 0.025 | COc1cc(-c2ccc(Cn3ccc4c(F)ccc(C(=O)NC5CC6(C5)CC(C(=O)O)C6)c43)cc2)ccc1F (racemic) [Example 19, (racemic)-6-(4-fluoro-1-((4′-fluoro-3′-methoxy-[1,1′-biphenyl]-4-yl)methyl)-1H-indole-7-carboxamido)spiro[3.3]heptane-2-carboxylic acid]
9 | < 0.001 | < 0.025 | COc1cc(C#N)cc(-c2ccc(Cn3ccc4c(F)ccc(C(=O)NC5CC6(C5)CC(C(=O)O)C6)c43)cc2)c1 (racemic) [Example 20, (racemic)-6-(1-((3′-cyano-5′-methoxy-[1,1′-biphenyl]-4-yl)methyl)-4-fluoro-1H-indole-7-carboxamido)spiro[3.3]heptane-2-carboxylic acid]
10 | 0.001 | 0.051 | O=C(NC1CC2(C1)CC(C(=O)O)C2)c1ccc(F)c2ccn(Cc3ccc(-c4ccc(OC5COC5)c(Cl)c4)cc3)c12 (racemic) [Example 21, (racemic)-6-(1-((3′-Chloro-4′-(oxetan-3-yloxy)-[1,1′-biphenyl]-4-yl)methyl)-4-fluoro-1H-indole-7-carboxamido)spiro[3.3]heptane-2-carboxylic acid]
11 | 0.001 | 0.06 | O=C(NC1CC2(C1)CC(C(=O)O)C2)c1ccc(F)c2ccn(Cc3ccc(-c4ccc(OC5COC5)cc4)cc3)c12 (racemic) [Example 23, (racemic)-6-(4-Fluoro-1-((4′-(oxetan-3-yloxy)-[1,1′-biphenyl]-4-yl)methyl)-1H-indole-7-carboxamido)spiro[3.3]heptane-2-carboxylic acid]
12 | < 0.001 | 0.045 | CC(C)(C)c1ccc(Cn2ccc3c(C#N)ccc(C(=O)NC4CC5(C4)CC(C(=O)O)C5)c32)cc1 (racemic) [Example 27, (racemic)-6-(1-(4-(tert-Butyl)benzyl)-4-cyano-1H-indole-7-carboxamido)spiro[3.3]heptane-2-carboxylic acid]
13 | < 0.001 | 0.044 | O=C(NC1CC2(C1)CC(C(=O)O)C2)c1ccc(F)c2ccn(Cc3ccc(N4CCOCC4)cc3)c12 (racemic) [Example 31, (racemic)-6-(4-Fluoro-1-(4-morpholinobenzyl)-1H-indole-7-carboxamido)spiro[3.3]heptane-2-carboxylic acid]
14 | < 0.001 | < 0.025 | O=C(NC1CC2(C1)CC(C(=O)O)C2)c1cccc2cnn(Cc3ccc(OC(F)(F)F)cc3)c12 (racemic) [Example 32, (racemic)-6-(1-(4-(Trifluoromethoxy)benzyl)-1H-indazole-7-carboxamido)spiro[3.3]heptane-2-carboxylic acid]
15 | 0.003 | < 0.025 | O=C(NC1CC2(C1)CC(C(=O)O)C2)c1cccc2cnn(Cc3ccc(-c4ccccc4)cc3)c12 (racemic) [Example 33, (racemic)-6-(1-([1,1′-biphenyl]-4-ylmethyl)-1H-indazole-7-carboxamido)spiro[3.3]heptane-2-carboxylic acid]
16 | < 0.001 | 0.072 | CCOc1cc(-c2ccc(Cn3ccc4c(F)ccc(C(=O)NC5CC6(C5)CC(C(=O)O)C6)c43)cc2)ccn1 (racemic) [Example 36, (Racemic)-6-(1-(4-(2-ethoxypyridin-4-yl)benzyl)-4-fluoro-1H-indole-7-carboxamido)spiro[3.3]heptane-2-carboxylic acid]
17 | 0.0089 | 0.081 | CNC(=O)c1cc(-c2ccc(Cn3ncc4c(Cl)ccc(C(=O)NC5CC6(C5)CC(F)(C(=O)O)C6)c43)cc2)ccn1 (racemic) [Example 102, (racemic)-6-(4-chloro-1-(4-(2-(methylcarbamoyl)pyridin-4-yl)benzyl)-1H-indazole-7-carboxamido)-2-fluorospiro[3.3]heptane-2-carboxylic acid]
18 | < 0.001 | 0.033 | O=C(O)CC1CC2(C1)CC(NC(=O)c1cc(F)cc3cnn(Cc4ccc(-c5ccccc5)cc4)c13)C2 (racemic) [Example 107, (racemic)-2-(6-(1-([1,1′-biphenyl]-4-ylmethyl)-5-fluoro-1H-indazole-7-carboxamido)spiro[3.3]heptan-2-yl)acetic acid]
19 | 0.0018 | < 0.025 | CC(c1ccc(-c2ccccc2)cc1)n1ncc2cccc(C(=O)NC3CC4(C3)CC(C(=O)O)C4)c21 (racemic) [Example 112, (Sa)-6-(1-((racemic)-1-([1,1′-Biphenyl]-4-yl)-ethyl)-1H-indazole-7-carboxamido)spiro[3.3]heptane-2-carboxylic acid]
